Results on 14 compounds are retold here after US4508716A, “[1,2]-Fused 1,4-benzodiazepine compounds, process for their preparation and compositions containing them” (Kali-Chemie Pharma GmbH, priority 1981, dated 1985).

The structures appear in SMILES notation. Some results are limits rather than exact numbers.

For data set [1], the system named is apomorphine-induced climbing behaviour. As to the kind of experiment: Test for neuroleptic properties: inhibition of apomorphine-induced climbing behaviour in mice. It counts as in vivo. As to conditions: Mus musculus, male NMR1 mice, 60 min before apomorphine 1.0 mg/kg s.c.; for inhibition in vivo at 2.2 mg/kg: dose 2.2 mg/kg peroral. On the procedure:
2. Test for neuroleptic properties
Determination of the effective dose for inhibiting apomorphine-induced climbing behaviour in mice (modified method of P. Protais et al., Psychopharmacology 50, (1976), 1-6).
Groups each containing 10 male NMR1 mice of 18-24 g. body weight are used per test dose. The test substance is administered perorally, as a suspension in […] "Tylose" solution.
After 60 minutes, the animals are each injected subcutaneously with 1.0 mg./kg. of apomorphine, and immediately after the injection, each animal is placed under a vertical wire mesh cylinder (diameter 13 cm., height 16 cm., closed at the top). After 10, 20 and 30 minutes, the climbing behaviour of the animals is evaluated in accordance with the following point system:
0 points=no paw on the mesh
1 point=one or two paws touching the mesh
2 points=three or all paws gripping the mesh, or climbing
For each test group, the sum of the points (maximum number of points=20) at the three test times is determined, and the average of the 3 values is taken for calculating the inhibition of climbing behaviour effected by the test substance.
In the table which follows, the inhibiting action is given in % inhibition in comparison with the climbing behaviour of a control group which was not treated with the test substance.

A further data set relates to hexobarbital anaesthesia. The data set is described as follows: Test for the central nervous system sedating properties: prolongation of the duration of hexobarbital anaesthesia in mice. It counts as in vivo. As to conditions: male mice, 60 min before hexobarbital sodium 50 mg/kg i.v.
Data set [2] in a line: Acute toxicity (acute 7-day toxicity following a single oral administration, LD50 by probit analysis). As to conditions: mouse, in vivo, NMR1 mice. On the procedure: The acute 7-day toxicity is determined following a single oral administration to white, fasting NMR1 mice, and the LD50 value is calculated by electronic data processing, by probit analysis.

In data set [1] (dose 13.9 mg/kg peroral), `CCOc1ccc2c(c1)C(c1ccn(C)c1)=NCC1CN(C)CCN21` (centres unmarked) [Example 41] returned an inhibition in vivo at 13.9 mg/kg of 14%. Besides, in the data set on hexobarbital anaesthesia (dose 43.8 mg/kg peroral), the “Prolongation of the duration of hexobarbital anaesthesia, prolongation factor” value (“Prolongation” below) was determined as 1.6.

`COc1ccc2c(c1)N1CCN(C)CC1C[N+]([O-])=C2c1ccco1` (centres unmarked) [Example 36] registered an LD50 at 168 h in data set [2] above 704 mg/kg. This compound also registered an inhibition in vivo at 22.3 mg/kg in data set [1] (dose 22.3 mg/kg peroral) of 34%. Besides, the “Prolongation” value in the data set on hexobarbital anaesthesia (dose ≤70.4 mg/kg peroral) came to 0.

`Cc1ccc2c(c1)C(c1ccco1)=[N+]([O-])CC1CN(C)CCN21` (centres unmarked) [Example 35] registered a median lethal dose (LD50) at 168 h in data set [2] above 311 mg/kg. The same compound displayed an inhibition in vivo at 9.8 mg/kg in data set [1] (dose 9.8 mg/kg peroral) of 35%. Also, in the data set with hexobarbital anaesthesia (dose 9.8 mg/kg peroral), the “Prolongation” value is reported as 2.1.

In data set [2], `C=CCN1CCN2c3ccccc3C(c3cccs3)=NCC2C1` (centres unmarked) [Example 70] displayed an LD50 at 168 h of around 790 mg/kg. This compound also had an inhibition in vivo at 2.2 mg/kg in data set [1] of 36%. The “Prolongation” value in the data set with hexobarbital anaesthesia (dose ≤39.6 mg/kg peroral) was determined as 0.

For `CCN1CCN2c3ccccc3C(c3cccs3)=NCC2C1` (centres unmarked) [Example 69], the LD50 at 168 h in data set [2] is around 420 mg/kg. Moreover, the inhibition in vivo at 0.7 mg/kg in data set [1] (dose 0.7 mg/kg peroral) is 71%. Besides, the “Prolongation” value with hexobarbital anaesthesia (dose ≤28.0 mg/kg peroral) is given as 0.

Consider `Cc1cc(C)c2c(c1)N1CCOCC1CN=C2c1cccs1` (centres unmarked) [Example 63], for which the inhibition in vivo at 21.3 mg/kg in data set [1] (dose 21.3 mg/kg peroral) stood at 11%. Besides, in the data set with hexobarbital anaesthesia (dose 67.2 mg/kg peroral), the “Prolongation” value is 1.5.

Turning to `Cc1ccc2c(c1)C(c1ccc(Br)s1)=NCC1COCCN21` (centres unmarked) [Example 22], the LD50 at 168 h in data set [2] is above 811 mg/kg. Also, the inhibition in vivo at 8.1 mg/kg in data set [1] (dose 8.1 mg/kg peroral) amounted to 50%. The “Prolongation” value in the data set on hexobarbital anaesthesia (dose 37.7 mg/kg peroral) came out at 1.5.

`COc1ccc2c(c1)N1CCN(C)CC1CN=C2c1cccs1` (centres unmarked) [Example 51] displayed an LD50 at 168 h in data set [2] above 704 mg/kg. Moreover, the inhibition in vivo at 2.2 mg/kg in data set [1] was determined as 57%. For the same compound, the “Prolongation” value in the data set on hexobarbital anaesthesia (dose 22.3 mg/kg peroral) is listed as 1.9.

The compound `CC(C)CCN1CCN2c3ccccc3C(c3cccs3)=NCC2C1` (centres unmarked) [Example 74] registered an LD50 at 168 h in data set [2] of around 730 mg/kg. Moreover, in data set [1] (dose 3.3 mg/kg peroral), the inhibition in vivo at 3.3 mg/kg turned out to be 70%. In addition, in the data set on hexobarbital anaesthesia (dose 33.0 mg/kg peroral), the “Prolongation” value turned out to be 2.0.

The compound `CN1CCN2c3ccccc3C(c3cccs3)=NCC2C1` (centres unmarked) [Example 4, 1,2,3,4,4a,5-Hexahydro-3-methyl-7-(2-thienyl)-pyrazino[1,2-a][1,4]benzodiazepine] had an LD50 at 168 h in data set [2] of around 440 mg/kg. Further, testing at 2.9 mg/kg in data set [1] (dose 2.9 mg/kg peroral) gave an inhibition in vivo of 70%. Also, the “Prolongation” value with hexobarbital anaesthesia (dose ≤13.8 mg/kg peroral) is 0.

On to `Cc1cc(C)c2c(c1)N1CCSCC1CN=C2c1cccs1` (centres unmarked) [Example 65], for which, in data set [1] (dose 22.4 mg/kg peroral), the inhibition in vivo at 22.4 mg/kg turned out to be 12%.

Take `CN1CCN2c3ccc(Cl)cc3C(c3cccn3C)=NCC2C1` (centres unmarked) [Example 9, 1,2,3,4,4a,5-Hexahydro-9-chloro-3-methyl-7-[2-(N-methyl)-pyrrolyl]-pyrazino[1,2-a][1,4]benzodiazepine]: the 50% lethal dose (LD50) at 168 h in data set [2] was above 893 mg/kg. This compound also showed an inhibition in vivo at 4.2 mg/kg in data set [1] (dose 4.2 mg/kg peroral) of 48%. In the data set on hexobarbital anaesthesia (dose ≤41.5 mg/kg peroral), the “Prolongation” value turned out to be 0.

In turn, `Cc1ccc2c(c1)C(c1ccco1)=NCC1CN(C)CCN21` (centres unmarked) [Example 10a, 1,2,3,4,4a,5-Hexahydro-3,9-dimethyl-7-(2-furyl)-pyrazino[1,2-a][1,4]benzodiazepine] registered a 50% lethal dose (LD50) at 168 h in data set [2] above 422 mg/kg. The same compound returned an inhibition in vivo at 13.3 mg/kg in data set [1] (dose 13.3 mg/kg peroral) of 31%. Further, the “Prolongation” value with hexobarbital anaesthesia (dose ≤42.2 mg/kg peroral) amounted to 0.

In the case of `CN1CCN2c3cc(F)ccc3C(c3cccs3)=NCC2C1` (centres unmarked) [Example 55], the 50% lethal dose (LD50) at 168 h in data set [2] was above 315 mg/kg. The compound also had an inhibition in vivo at 0.2 mg/kg in data set [1] (dose 0.2 mg/kg peroral) of 47%. In addition, the “Prolongation” value in the data set with hexobarbital anaesthesia (dose 6.8 mg/kg peroral) was 1.3.
